Laboratory results taken from patent publication US20260365670A1, “EGFR INHIBITORS AND USES THEREOF” (DIZAL (JIANGSU) PHARMACEUTICAL CO., LTD., priority 2022, published 2026).
Like-named read-outs stand apart in the source and are kept apart here.

Tests used:
PC-9 = assay: Cell proliferation assay, PC-9 cells (CellTiter-Glo, 72 hours); assay type: cell-based; details: Homo sapiens, PC-9, 72 h, PC9 cells, CellTiter-Glo, read-out: PC9 GI50
Procedure, shortened: (§1)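 In RPMI1640 medium (PC-9 with 10% FBS), each cell line was seeded at its own density: Ba/F3 5000 and PC-9 500 per well. A compound series was added the next day, with a time-zero viability plate read in parallel. Percent proliferation was subtracted for G0 and referenced to DMSO, and GI50 was derived by curve fitting.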

EGFR[T790M/C797S/L858R] = target: T1, EGFR[T790M/C797S/L858R] (Homo sapiens, UniProt P00533, C797S/L858R/T790M); assay: Inhibition of EGFR[T790M/C797S/L858R] biochemical enzymatic activity (HTRF); details: EGFR T790M-C797S-L858R, 1 mM ATP, 1 h, room temperature, read-out: IC50 (nM) @T790M- C797S - L858R
T1 construct: purchased Carna Bio
Procedure, shortened: (§2)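 Enzyme preincubated with compound, then ATP (1 mM) and TK substrate-biotin (1 μM) added; 1 h RT; stopped with EDTA-containing detection mix; HTRF read (ex 320, em 615/665 nm); IC50 by 4-parameter logistic fit.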

A-431 = assay: Cell proliferation GI50, A-431 cells (Table 6); assay type: cell-based; details: Homo sapiens, A-431, A-431 cells
EGFR wild type = target: T2, EGFR wild type (Homo sapiens, UniProt P00533); assay: Inhibition of EGFR wild type biochemical enzymatic activity (HTRF); details: EGFR WT, 1 mM ATP, 1 h, room temperature, read-out: IC50 (nM) @WT
T2 construct: purchased Carna Bio
T2 sequence (P00533 25-1210): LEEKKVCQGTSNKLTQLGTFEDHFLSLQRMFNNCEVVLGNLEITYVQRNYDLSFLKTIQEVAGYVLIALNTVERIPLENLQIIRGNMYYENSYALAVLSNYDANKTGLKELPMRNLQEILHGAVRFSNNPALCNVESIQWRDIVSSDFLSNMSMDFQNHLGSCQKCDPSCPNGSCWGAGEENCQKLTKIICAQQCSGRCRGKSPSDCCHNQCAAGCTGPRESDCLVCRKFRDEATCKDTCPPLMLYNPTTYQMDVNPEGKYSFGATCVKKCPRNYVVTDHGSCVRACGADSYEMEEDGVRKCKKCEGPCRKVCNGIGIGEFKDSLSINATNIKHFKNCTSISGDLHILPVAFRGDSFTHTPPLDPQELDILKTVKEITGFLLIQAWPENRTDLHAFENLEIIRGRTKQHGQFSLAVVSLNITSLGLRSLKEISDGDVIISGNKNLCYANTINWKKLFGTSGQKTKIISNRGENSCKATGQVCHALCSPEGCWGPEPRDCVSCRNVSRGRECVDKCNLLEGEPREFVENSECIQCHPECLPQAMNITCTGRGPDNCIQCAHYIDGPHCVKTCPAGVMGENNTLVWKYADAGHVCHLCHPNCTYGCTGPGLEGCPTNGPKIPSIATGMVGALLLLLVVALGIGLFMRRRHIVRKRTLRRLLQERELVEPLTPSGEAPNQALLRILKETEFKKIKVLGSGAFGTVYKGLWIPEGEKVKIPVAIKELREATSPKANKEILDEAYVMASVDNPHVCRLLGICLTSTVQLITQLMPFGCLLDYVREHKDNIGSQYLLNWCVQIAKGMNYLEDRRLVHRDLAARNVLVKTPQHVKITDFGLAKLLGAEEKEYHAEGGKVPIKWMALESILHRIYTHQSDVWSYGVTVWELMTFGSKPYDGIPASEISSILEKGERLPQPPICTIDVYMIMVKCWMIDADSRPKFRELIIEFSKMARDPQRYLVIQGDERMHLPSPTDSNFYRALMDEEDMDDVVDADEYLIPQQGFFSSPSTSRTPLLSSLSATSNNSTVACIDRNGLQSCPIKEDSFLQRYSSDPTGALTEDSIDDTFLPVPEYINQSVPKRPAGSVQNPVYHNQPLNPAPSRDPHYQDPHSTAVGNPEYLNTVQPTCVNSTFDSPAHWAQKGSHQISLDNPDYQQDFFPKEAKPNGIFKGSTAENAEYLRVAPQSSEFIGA
Procedure, shortened: as §2

EGFR (d746-750 C797S) = target: T3, EGFR (d746-750 C797S) (Homo sapiens, UniProt P00533, C797S/DEL746-750); assay: Inhibition of EGFR (d746-750 C797S) biochemical enzymatic activity (HTRF); details: EGFR Del19-C797S, 1 mM ATP, 1 h, room temperature, read-out: IC50 (nM) @Del19-C797S
T3 construct: purchased signalchem
T3 sequence (P00533 with tags, fused parts or gaps DEL746-750/C797S limits assumed): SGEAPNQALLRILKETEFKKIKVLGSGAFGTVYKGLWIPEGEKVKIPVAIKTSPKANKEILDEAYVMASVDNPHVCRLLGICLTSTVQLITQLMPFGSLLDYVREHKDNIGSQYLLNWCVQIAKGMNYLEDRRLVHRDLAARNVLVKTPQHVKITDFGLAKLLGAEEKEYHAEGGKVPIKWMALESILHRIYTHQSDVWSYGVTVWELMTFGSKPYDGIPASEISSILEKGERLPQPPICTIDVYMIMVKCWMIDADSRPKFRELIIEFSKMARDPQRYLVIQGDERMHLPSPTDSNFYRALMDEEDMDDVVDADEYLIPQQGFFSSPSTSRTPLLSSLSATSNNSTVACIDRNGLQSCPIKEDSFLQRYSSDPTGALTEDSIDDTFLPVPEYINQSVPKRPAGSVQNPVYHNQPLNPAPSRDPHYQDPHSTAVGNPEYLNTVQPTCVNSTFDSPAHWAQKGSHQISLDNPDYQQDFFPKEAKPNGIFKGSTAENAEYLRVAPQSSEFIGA
Procedure, shortened: as §2

EGFR L858R/T790M = target: T4, EGFR L858R/T790M (Homo sapiens, UniProt P00533, L858R/T790M); assay: Inhibition of EGFR L858R/T790M biochemical enzymatic activity (HTRF); details: EGFR L858R-T790M, 1 mM ATP, 1 h, room temperature, read-out: IC50 (nM) @L858R-T790M
T4 construct: purchased Carna Bio
Procedure, shortened: as §2

[1] = test system: Ba/F3 cells expressing EGFR mutations; assay: Cell proliferation assay, Ba/F3 cells expressing EGFR mutations (CellTiter-Glo, 72 hours); assay type: cell-based; details: Mus musculus, BaF3, 72 h, CellTiter-Glo
Procedure, shortened: as §1

EGFR Exon19Del/T790M = target: T5, EGFR Exon19Del/T790M (Homo sapiens, UniProt P00533, DEL746-750/T790M); assay: Inhibition of EGFR Exon19Del/T790M biochemical enzymatic activity (HTRF); details: EGFR Del19-T790M, 1 mM ATP, 1 h, room temperature, read-out: IC50 (nM) @Del19-T790M
T5 construct: purchased Carna Bio
T5 sequence (P00533 with tags, fused parts or gaps DEL746-750/T790M limits assumed): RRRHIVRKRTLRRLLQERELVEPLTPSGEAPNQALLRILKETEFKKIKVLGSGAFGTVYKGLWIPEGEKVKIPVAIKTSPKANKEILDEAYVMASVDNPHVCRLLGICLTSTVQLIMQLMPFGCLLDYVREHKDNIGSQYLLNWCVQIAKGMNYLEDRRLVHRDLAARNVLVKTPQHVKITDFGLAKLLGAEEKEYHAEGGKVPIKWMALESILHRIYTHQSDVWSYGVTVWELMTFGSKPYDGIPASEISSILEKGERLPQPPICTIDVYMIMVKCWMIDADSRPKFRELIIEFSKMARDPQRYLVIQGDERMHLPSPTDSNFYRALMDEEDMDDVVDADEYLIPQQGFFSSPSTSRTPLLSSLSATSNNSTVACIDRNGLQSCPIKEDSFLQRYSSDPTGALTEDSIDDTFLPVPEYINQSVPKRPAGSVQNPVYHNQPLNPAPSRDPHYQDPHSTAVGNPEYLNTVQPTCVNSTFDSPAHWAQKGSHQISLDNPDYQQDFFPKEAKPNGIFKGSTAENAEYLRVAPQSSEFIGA
Procedure, shortened: as §2

EGFR (C797S L858R) = target: T6, EGFR (C797S L858R) (Homo sapiens, UniProt P00533, C797S/L858R); assay: Inhibition of EGFR (C797S L858R) biochemical enzymatic activity (HTRF); details: EGFR L858-C797S, 1 mM ATP, 1 h, room temperature, read-out: IC50 (nM) @L858-C797S
T6 construct: purchased signalchem
T6 sequence (P00533 25-1210 C797S/L858R): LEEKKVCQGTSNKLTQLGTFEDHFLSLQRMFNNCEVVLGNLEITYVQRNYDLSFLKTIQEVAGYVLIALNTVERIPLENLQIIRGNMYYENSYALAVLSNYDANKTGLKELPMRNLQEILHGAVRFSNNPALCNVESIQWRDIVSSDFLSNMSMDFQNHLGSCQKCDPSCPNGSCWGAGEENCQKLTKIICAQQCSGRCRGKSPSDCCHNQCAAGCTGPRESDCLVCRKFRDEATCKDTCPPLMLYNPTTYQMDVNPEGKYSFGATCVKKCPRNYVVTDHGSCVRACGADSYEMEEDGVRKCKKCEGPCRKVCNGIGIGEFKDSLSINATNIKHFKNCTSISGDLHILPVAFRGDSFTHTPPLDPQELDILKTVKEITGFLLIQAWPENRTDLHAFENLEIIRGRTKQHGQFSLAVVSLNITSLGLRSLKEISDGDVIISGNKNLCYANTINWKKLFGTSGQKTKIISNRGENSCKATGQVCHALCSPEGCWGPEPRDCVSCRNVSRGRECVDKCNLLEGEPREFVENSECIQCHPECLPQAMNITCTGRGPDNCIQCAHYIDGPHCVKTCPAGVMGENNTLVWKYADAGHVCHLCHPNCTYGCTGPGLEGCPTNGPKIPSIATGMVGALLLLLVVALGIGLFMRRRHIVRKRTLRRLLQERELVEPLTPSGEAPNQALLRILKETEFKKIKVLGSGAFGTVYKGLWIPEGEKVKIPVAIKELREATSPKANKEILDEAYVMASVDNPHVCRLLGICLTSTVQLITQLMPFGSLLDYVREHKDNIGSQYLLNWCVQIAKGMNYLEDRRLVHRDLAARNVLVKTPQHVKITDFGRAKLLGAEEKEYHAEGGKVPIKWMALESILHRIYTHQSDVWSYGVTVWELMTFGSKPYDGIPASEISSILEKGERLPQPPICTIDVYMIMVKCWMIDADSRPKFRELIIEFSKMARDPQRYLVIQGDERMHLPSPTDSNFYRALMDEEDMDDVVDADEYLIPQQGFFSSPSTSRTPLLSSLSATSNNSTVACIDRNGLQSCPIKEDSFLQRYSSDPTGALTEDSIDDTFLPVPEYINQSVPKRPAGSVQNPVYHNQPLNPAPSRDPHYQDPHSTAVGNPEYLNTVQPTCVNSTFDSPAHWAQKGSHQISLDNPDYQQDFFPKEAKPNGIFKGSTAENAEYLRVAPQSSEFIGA
Procedure, shortened: as §2

[2] = target: T7, EGFR[T790M/C797S/d746-750] (Homo sapiens, UniProt P00533, C797S/DEL746-750/T790M); assay: Inhibition of EGFR[T790M/C797S/d746-750] biochemical enzymatic activity (HTRF); details: EGFR T790M-C797S-Del19, 1 mM ATP, 1 h, room temperature, read-out: IC50 (nM) @T790M - C797S - Del19
T7 construct: purchased Carna Bio
T7 sequence (P00533 with tags, fused parts or gaps DEL746-750/T790M/C797S limits assumed): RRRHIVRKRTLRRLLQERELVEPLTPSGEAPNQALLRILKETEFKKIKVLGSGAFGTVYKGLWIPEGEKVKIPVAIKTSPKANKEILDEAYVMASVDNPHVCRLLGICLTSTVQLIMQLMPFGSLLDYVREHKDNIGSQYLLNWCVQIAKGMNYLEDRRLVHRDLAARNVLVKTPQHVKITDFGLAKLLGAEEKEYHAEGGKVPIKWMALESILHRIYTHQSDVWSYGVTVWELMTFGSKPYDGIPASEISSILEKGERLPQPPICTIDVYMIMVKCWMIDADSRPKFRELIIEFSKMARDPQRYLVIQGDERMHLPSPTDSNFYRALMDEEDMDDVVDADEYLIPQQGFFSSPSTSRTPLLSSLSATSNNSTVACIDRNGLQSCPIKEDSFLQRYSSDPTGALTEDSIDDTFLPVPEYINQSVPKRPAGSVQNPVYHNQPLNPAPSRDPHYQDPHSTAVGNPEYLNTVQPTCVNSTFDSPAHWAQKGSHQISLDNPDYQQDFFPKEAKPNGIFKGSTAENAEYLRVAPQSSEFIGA
Procedure, shortened: as §2

EGFR Exon19Del = target: T8, EGFR Exon19Del (Homo sapiens, UniProt P00533, DEL746-750); assay: Inhibition of EGFR Exon19Del biochemical enzymatic activity (HTRF); details: EGFR Del19, 1 mM ATP, 1 h, room temperature, read-out: IC50 @Del19
T8 construct: purchased Carna Bio
T8 sequence (P00533 with tags, fused parts or gaps DEL746-750 limits assumed): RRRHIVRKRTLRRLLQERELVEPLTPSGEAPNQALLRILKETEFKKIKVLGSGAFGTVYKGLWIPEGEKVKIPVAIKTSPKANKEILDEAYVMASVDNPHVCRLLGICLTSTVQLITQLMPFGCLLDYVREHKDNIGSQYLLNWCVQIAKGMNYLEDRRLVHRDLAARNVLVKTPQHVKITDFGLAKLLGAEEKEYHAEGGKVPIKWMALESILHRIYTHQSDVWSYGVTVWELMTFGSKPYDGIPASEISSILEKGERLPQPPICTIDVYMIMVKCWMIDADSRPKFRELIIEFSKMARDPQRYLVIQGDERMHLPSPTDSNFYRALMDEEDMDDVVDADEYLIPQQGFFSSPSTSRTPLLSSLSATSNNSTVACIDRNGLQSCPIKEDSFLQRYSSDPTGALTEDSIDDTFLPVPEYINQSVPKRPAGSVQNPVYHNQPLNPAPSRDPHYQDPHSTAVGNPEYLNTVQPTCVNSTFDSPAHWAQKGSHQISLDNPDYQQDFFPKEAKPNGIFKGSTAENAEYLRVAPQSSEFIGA
Procedure, shortened: as §2

EGFR L858R = target: T9, EGFR L858R (Homo sapiens, UniProt P00533, L858R); assay: Inhibition of EGFR L858R biochemical enzymatic activity (HTRF); details: 1 mM ATP, 1 h, room temperature, read-out: IC50 (nM) @L858R
T9 construct: purchased Carna Bio
Procedure, shortened: as §2

[3] = BaF3 cells, EGFR DEL19-C797S, read-out: DEL19-C797S/BaF3 GI50
[4] = BaF3 cells, EGFR DEL19-T790-C797S, read-out: DEL19-T790-C797S/BaF3 GI50
[5] = BaF3 cells, EGFR L858R, read-out: L858R/BaF3 GI50
[6] = BaF3 cells, EGFR L858R-C797S, read-out: L858R-C797S/BaF3 GI50
[7] = BaF3 cells, EGFR L858R-T790-C797S, read-out: L858R-T790-C797S/BaF3 GI50
[8] = BaF3 cells, EGFR L858R-T790M, read-out: L858R-T790M/BaF3 GI50
[9] = EGFR DEL19-T790M, read-out: DEL19-T790M GI50

GI50 (PC-9)	IC50 (EGFR[T790M/C797S/L858R])	GI50 (A-431)	IC50 (EGFR wild type)	IC50 (EGFR (d746-750 C797S))	IC50 (EGFR L858R/T790M)	GI50 [1, 3]	GI50 [1, 4]	GI50 [1, 5]	GI50 [1, 6]	GI50 [1, 7]	GI50 [1, 8]	GI50 [1, 9]	IC50 (EGFR Exon19Del/T790M)	IC50 (EGFR (C797S L858R))	IC50 [2]	IC50 (EGFR Exon19Del)	IC50 (EGFR L858R)	SMILES
144 nM	2950 nM	6000 nM	> 5000 nM	120 nM	3520 nM	27 nM	56 nM	142 nM	160 nM	129 nM	535 nM	78 nM	25 nM	1760 nM	26 nM	97 nM	2500 nM	Cn1ncc2c1OCCN1CC3CCC(CC3)(C1)n1c(nc3ccccc31)NC(=O)c1cc-2c(=O)n(C)c1 [Example A100, 15,21-Dimethyl-23-oxa-2,9,11,15,20,21,26-heptaazaheptacyclo[26.2.2.1^{1,26}.1^{13,17}.0^{2,10}.0^{3,8}.0^{18,22}]tetratriaconta-3,5,7,9,13,17(34),18(22),19-octaene-12,16-dione]
128 nM	3.2 nM	1410 nM	> 5000 nM	2.3 nM	7.4 nM	8.1 nM	58 nM	68 nM	31 nM	57 nM	260 nM	92 nM	2.3 nM	47 nM	1.8 nM	3.5 nM	212 nM	C[C@@H]1CCCOc2c(cnn2C)-c2cc(cn(C)c2=O)C(=O)Nc2nc3ccc(N4CCN(C)CC4)c(Cl)c3n2C1 [Example A101, (11R)-15-Chloro-5,11,26-trimethyl-16-(4-methylpiperazin-1-yl)-7-oxa-4,5,13,20,22,26-hexaazapentacyclo[22.3.1.0^{2,6}.0^{13,21}.0^{14,19}]octacosa-1(28),2(6),3,14,16,18,20,24-octaene-23,27-dione]
115 nM	32 nM	2910 nM	> 5000 nM	12 nM	195 nM	12 nM	31 nM	79 nM	61 nM	37 nM	307 nM	59 nM	5.7 nM	167 nM	3.4 nM	18 nM	414 nM	C[C@@H]1CCCOc2c(cnn2C)-c2cc(cn(C)c2=O)C(=O)Nc2nc3ccc4c(c3n2C1)CCNC4 [Example A102, (11R)-5,11,30-Trimethyl-7-oxa-4,5,13,18,24,26,30-heptaazahexacyclo[26.3.1.0^{2,6}.0^{13,25}.0^{14,23}.0^{15,20}]dotriaconta-1(32),2(6),3,14,20,22,24,28-octaene-27,31-dione]
32 nM	20 nM	1680 nM	> 5000 nM	5.4 nM	65 nM	2.7 nM	7 nM	26 nM	17 nM	10 nM	72 nM	18 nM	1.8 nM	68 nM	1.3 nM	7.4 nM	168 nM	C[C@@H]1CCCOc2c(cnn2C)-c2cc(cn(C)c2=O)C(=O)Nc2nc3ccc4c(c3n2C1)CCN(C)C4 [Example A103, (11R)-5,11,18,30-tetramethyl-7-oxa-4,5,13,18,24,26,30-heptaazahexacyclo[26.3.1.0^{2,6}.0^{13,25}.0^{14,23}.0^{15,20}]dotriaconta-1(32),2(6),3,14,20,22,24,28-octaene-27,31-dione]
252 nM	2470 nM	1950 nM	> 5000 nM	60 nM	2190 nM	89 nM	364 nM	257 nM	344 nM	159 nM	982 nM	300 nM	27 nM	1700 nM	19 nM	204 nM	2460 nM	C[C@@H]1CCCOc2c(cnn2C)-c2cc(cn(C)c2=O)C(=O)Nc2nc3ccc(Br)cc3n2C1 [Example M3, (11R)-16-Bromo-5,11,26-trimethyl-7-oxa-4,5,13,20,22,26-hexaazapentacyclo[22.3.1.0^{2,6}.0^{13,21}.0^{14,19}]octacosa-1(28),2(6),3,14,16,18,20,24-octaene-23,27-dione]
